Experiments:
[1] = test system: vascular reactivity (methoxamine); assay: Vascular reactivity to methoxamine in pithed rats perfused with endotoxin (EDTX); assay type: in vivo, Male Sprague Dawley rats; details: for inhibition of vascular hyporeactivity: pithed rats, endotoxin 300 μg/kg/h, 60 min
Protocol: Male Sprague Dawley rats (280-320 g) were pithed and perfused continuously with endotoxin (EDTX, Escherichia Coli lipopolysaccharide OIII: B4; 300 μg/kg/h) for 60 min.

EDRF = assay: Restoration of depressed response to catecholamines / inhibition of vascular hyporeactivity (general statement)
[2] = Blood pressure in pithed rats perfused with endotoxin; assay type: in vivo, Male Sprague Dawley rats; details: endotoxin 300 μg/kg/h, 60 min
Protocol: Male Sprague Dawley rats (280-320 g) were pithed and perfused continuously with endotoxin (EDTX, Escherichia Coli lipopolysaccharide OIII: B4; 300 μg/kg/h) for 60 min. […] A 60 min perfusion of endotoxin lipopolysaccharide (300 μg/kg/h) to pithed rats led to hypotension and impaired the vascular reactivity to pressor agents as observed in septic and endotoxinic shock in human. […] Their effects on blood pressure are however less marked. Association of blockers of cyclooxygenase (aspirin, indomethacin for instance . . . ) and blockers of EDRF results on a highly significative synergistic protective effect in both vascular hyperactivity and decrease of blood pressure induced by shock.

thoracic aorta rings = assay: Contractile responses of thoracic aorta rings from endotoxin-treated rats (PE-induced contraction, loss of tonicity), organ bath; set-up: species or system Sprague Dawley rats; details: rings from endotoxin-treated animals; compounds of the invention at 10, 30 or 100 μM, with or without endothelium
Protocol: Sprague Dawley rats (220-330 g) received a 10 mg/kg ip injection of Escherichia Coli endotoxin (0114B4 Sigma). After 3 hours, rats were sacrificed by cervical dislocation and the thoracic aorta removed and cleaned of the surrounding tissue. Rings 2 mm wide were suspended under a tension of 2 g at 37° C. in organ bath containing 10 ml of Krebs Henseleit physiological solution and gassed with 95% O2 /5% CO2. Contractile responses were measured using force displacement transducers (Auguet M., Delaflotte S., P. E. Chabrier, P. Braquet Comparative effects of endotelin and phorbol 12-13 dibutyrate in rat aorta. Life Sci. 45, 21, 2051-2059, 1989).
In some experiments, the endothelium was gently disrupted (-E). Phenylephrine (PE) induced contraction was stable over the time in control rings of animals receiving saline solution (0.9% NaCl) with (E+) or without (E-) endothelium. The arginine derivative (10, 30 or 100 μM) had no significant effect per se.
This phenomenon was accentuated with intact endothelium (E+).
In some experiments, the compounds of the invention were introduced in the bath 105 minutes after PE when the tissue had completely its tonicity. Under these conditions, the compounds of the invention, alone, were able to curatively and totally restore the contraction and therefore contribute extensively to vascular hyporesponsiveness to vasoconstrictor agents in shock. […]

COc1ccc(OC)c(C(O)C(C)N)c1 (stereo not drawn) [methoxamine, reference compound]
ED50 ([1]; Rattus norvegicus, control rats, cumulative dose-response): 0.079 ± 0.009 mg/kg

COC(=O)[C@@H](N)CCCNC(=N)N[N+](=O)[O-] [L-NAME, L-nitroarginine methyl ester]
restoration of depressed response to catecholamines and inhibition of vascular hyporeactivity (EDRF): able to restore depressed response to catecholamines and to effectively inhibit vascular hyporeactivity
inhibition of vascular hyporeactivity [1]: inhibited in a dose dependent manner
effects on blood pressure [2]: less marked

CNC(=N)NCCC[C@H](N)C(=O)O [L-NMMA, L-N-monomethyl arginine]
restoration of depressed response to catecholamines and inhibition of vascular hyporeactivity (EDRF): able to restore depressed response to catecholamines and to effectively inhibit vascular hyporeactivity
inhibition of vascular hyporeactivity [1]: inhibited in a dose dependent manner
effects on blood pressure [2]: less marked

CC(=N)NCCC[C@H](N)C(=O)O [L-NIO, L-iminoethylornithine]
restoration of depressed response to catecholamines and inhibition of vascular hyporeactivity (EDRF): able to restore depressed response to catecholamines and to effectively inhibit vascular hyporeactivity
inhibition of vascular hyporeactivity [1]: inhibited in a dose dependent manner
effects on blood pressure [2]: less marked

CNC(=N)NCCC[C@@H](N)C(=O)O [(D) N-methyl arginine, reference compound]
activity in the field of the present invention (EDRF): deprived of any activity

N=C(N)NCCC[C@H](N)C(=O)O [L-arginine]
effect on loss of tonicity in endotoxin treated preparation (thoracic aorta rings): enhanced the loss of tonicity
